pIC50: −log10 of the molar value.
How the values were obtained:
[1] = tested on: phospho-ERK in A549 (G12S) cells; experiment: Inhibition of KRas-mediated phosphorylation of ERK (in-cell western); assay type: cell-based; conditions: Homo sapiens, 3 hours compound, phospho-ERK normalized to GAPDH
Method in brief: (§1)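 Cells treated 3 h with compounds (0.5% DMSO), fixed in formaldehyde and methanol-permeabilized. In-cell western for phospho-ERK (Thr202/Tyr204) normalized to GAPDH, as % of DMSO control; IC50 by 4-parameter fit.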

[2] = tested on: phospho-ERK in AsPC-1 (G12D) cells; experiment: as above; assay type: cell-based; conditions: 3 hours compound, phospho-ERK normalized to GAPDH
Method in brief: as §1

[3] = tested on: phospho-ERK in HCT116 (G13D) cells; experiment: as above; assay type: cell-based; conditions: Homo sapiens, HCT-116, 3 hours compound, phospho-ERK normalized to GAPDH
Method in brief: as §1

[4] = tested on: phospho-ERK in MKN1 (WTdep) cells; experiment: as above; assay type: cell-based; conditions: Homo sapiens, MKN-1, 3 hours compound, phospho-ERK normalized to GAPDH
Method in brief: as §1

[5] = tested on: phospho-ERK in NCI-H358 (G12C) cells; experiment: as above; assay type: cell-based; conditions: Homo sapiens, 3 hours compound, phospho-ERK normalized to GAPDH
Method in brief: as §1

[6] = tested on: phospho-ERK in NCI-H460 (Q61H) cells; experiment: as above; assay type: cell-based; conditions: 3 hours compound, phospho-ERK normalized to GAPDH
Method in brief: as §1

[7] = tested on: phospho-ERK in NCI-H727 (G12V) cells; experiment: as above; assay type: cell-based; conditions: 3 hours compound, phospho-ERK normalized to GAPDH
Method in brief: as §1

[8] = tested on: phospho-ERK in PSN-1 (G12R) cells; experiment: as above; assay type: cell-based; conditions: Homo sapiens, PSN1, 3 hours compound, phospho-ERK normalized to GAPDH
Method in brief: as §1

KRas G12D = KRas G12D (Homo sapiens, UniProt P01116, G12D); experiment: biochemical;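 further: TR-FRET displacement binding assay on KRas, read after a one-hour incubation at room temperature, IC50 fitted from percent-of-control values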
Experimental: (§2) The ability of a compound to bind to KRas was measured using a TR-FRET displacement assay. […] After a 60-minute incubation at room temperature, the reaction was measured using a BMG LABTECH CLARIO star Plus via TR-FRET. […] The POC values were fit to a 4-parameter IC50 equation and the IC50 value reported.

KRas G12V = KRas G12V (Homo sapiens, UniProt P01116, G12V); experiment: biochemical;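 further: KRas binding measured by TR-FRET displacement at room temperature, IC50 fitted from percent of control values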
Experimental: as §2

KRas G12R = KRas G12R (Homo sapiens, UniProt P01116, G12R); experiment: biochemical;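 further: TR-FRET displacement assay of compound binding to KRas, read after one hour at room temperature, potency from a four-parameter fit of percent-of-control values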
Experimental: as §2

KRas G13D = target: T1, KRas G13D (Homo sapiens, UniProt P01116, G13D); experiment: KRas binding assay (TR-FRET displacement);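 further: One-hour room temperature incubation before TR-FRET reading, IC50 from a four-parameter curve fit to percent-of-control data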
T1 construct: Biotinylated KRas (corresponding to amino acids 1-169, produced at Accelegan Inc.); biotin (biotinylated); purchased Accelegan Inc
Experimental: as §2

KRas Q61H = target: T2, KRas Q61H (Homo sapiens, UniProt P01116, Q61H); experiment: KRas binding assay (TR-FRET displacement);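 further: TR-FRET signal read after one hour at room temperature, IC50 derived by four-parameter fitting of percent-of-control values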
T2 construct: Biotinylated KRas (corresponding to amino acids 1-169, produced at Accelegan Inc.); biotin (biotinylated); purchased Accelegan Inc
Experimental: as §2

KRas G12A = KRas G12A (Homo sapiens, UniProt P01116, G12A); experiment: biochemical;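 further: binding to KRas measured by TR-FRET displacement after one hour at room temperature, IC50 from a four-parameter fit of percent-of-control values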
Experimental: as §2

KRas G12S = KRas G12S (Homo sapiens, UniProt P01116, G12S); experiment: biochemical;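 further: TR-FRET displacement binding to KRas, read after one hour incubation at room temperature, IC50 from four-parameter fit of percent of control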
Experimental: as §2

KRas G12C = KRas G12C (Homo sapiens, UniProt P01116, G12C); experiment: biochemical;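 further: binding to KRas assessed by TR-FRET displacement after one hour incubation at room temperature, potency fitted from percent-of-control values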
Experimental: as §2

KRas WT = KRas WT (Homo sapiens, UniProt P01116); experiment: biochemical;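 further: binding to KRas read as TR-FRET displacement after a one-hour room-temperature incubation, IC50 derived from percent-of-control values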
Chain of KRas WT (P01116 1-169 isoform P01116-2): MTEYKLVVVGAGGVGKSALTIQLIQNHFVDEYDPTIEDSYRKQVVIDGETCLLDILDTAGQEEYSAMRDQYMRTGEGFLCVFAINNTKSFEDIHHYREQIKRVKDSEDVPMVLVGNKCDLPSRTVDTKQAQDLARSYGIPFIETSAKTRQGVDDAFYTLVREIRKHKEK
Experimental: as §2

Chain of KRas G12D (P01116 1-169 isoform P01116-2 G12D): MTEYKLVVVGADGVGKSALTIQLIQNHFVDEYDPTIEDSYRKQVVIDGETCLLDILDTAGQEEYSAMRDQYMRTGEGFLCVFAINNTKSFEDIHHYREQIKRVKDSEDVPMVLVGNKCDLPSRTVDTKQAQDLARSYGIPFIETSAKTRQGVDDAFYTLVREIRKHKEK
Chain of KRas G12R (P01116 1-169 isoform P01116-2 G12R): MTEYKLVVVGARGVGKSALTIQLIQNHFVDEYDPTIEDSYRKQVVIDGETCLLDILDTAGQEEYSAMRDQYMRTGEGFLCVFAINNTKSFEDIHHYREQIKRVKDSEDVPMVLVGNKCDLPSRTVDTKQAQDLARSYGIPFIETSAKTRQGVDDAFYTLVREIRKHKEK
Chain of KRas G12V (P01116 1-169 isoform P01116-2 G12V): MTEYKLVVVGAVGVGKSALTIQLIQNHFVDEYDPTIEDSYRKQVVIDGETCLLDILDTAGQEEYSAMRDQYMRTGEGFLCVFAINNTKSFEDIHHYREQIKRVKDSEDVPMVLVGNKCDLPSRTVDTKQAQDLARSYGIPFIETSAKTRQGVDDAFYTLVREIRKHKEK
T2 sequence (P01116 1-169 isoform P01116-2 Q61H): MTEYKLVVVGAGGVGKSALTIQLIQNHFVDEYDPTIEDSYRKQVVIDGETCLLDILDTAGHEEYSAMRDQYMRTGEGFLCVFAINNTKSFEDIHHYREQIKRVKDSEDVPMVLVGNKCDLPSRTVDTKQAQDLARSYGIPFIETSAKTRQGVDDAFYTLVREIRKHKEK
T1 sequence (P01116 1-169 isoform P01116-2 G13D): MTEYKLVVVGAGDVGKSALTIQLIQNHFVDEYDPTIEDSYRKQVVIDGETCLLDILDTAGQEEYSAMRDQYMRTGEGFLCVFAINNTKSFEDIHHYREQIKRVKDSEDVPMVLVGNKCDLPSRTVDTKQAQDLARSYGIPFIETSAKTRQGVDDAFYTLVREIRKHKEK
Chain of KRas G12S (P01116 1-169 isoform P01116-2 G12S): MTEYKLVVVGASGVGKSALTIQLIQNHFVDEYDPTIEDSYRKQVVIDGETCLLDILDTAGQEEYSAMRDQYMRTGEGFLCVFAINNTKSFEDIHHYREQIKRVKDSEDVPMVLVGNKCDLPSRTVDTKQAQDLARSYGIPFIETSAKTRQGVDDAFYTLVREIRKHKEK
Chain of KRas G12A (P01116 1-169 isoform P01116-2 G12A): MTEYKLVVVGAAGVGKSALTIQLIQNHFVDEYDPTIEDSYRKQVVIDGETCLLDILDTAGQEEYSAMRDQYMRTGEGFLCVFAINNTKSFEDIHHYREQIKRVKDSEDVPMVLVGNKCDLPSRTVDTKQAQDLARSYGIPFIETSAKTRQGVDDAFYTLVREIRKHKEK
Chain of KRas G12C (P01116 1-169 isoform P01116-2 G12C): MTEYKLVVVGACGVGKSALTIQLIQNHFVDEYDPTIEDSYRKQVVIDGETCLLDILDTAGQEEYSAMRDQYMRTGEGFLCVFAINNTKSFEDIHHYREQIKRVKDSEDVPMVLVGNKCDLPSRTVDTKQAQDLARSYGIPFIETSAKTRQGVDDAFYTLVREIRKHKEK

SMILES	IC50 [1] [nM]	IC50 ([2]; Homo sapiens, ASPC1, 3 h) [nM]	IC50 [3] [nM]	IC50 [4] [nM]	IC50 [5] [nM]	IC50 ([6]; Homo sapiens, NCI-H460, 3 h) [nM]	IC50 ([7]; Homo sapiens, NCI-H727, 3 h) [nM]	IC50 [8] [nM]	pIC50 (KRas G12D)	pIC50 (KRas G12V)	pIC50 (KRas G12R)	IC50 [2] [nM]	IC50 [6] [nM]	IC50 [7] [nM]	IC50 (KRas G13D) [nM]	IC50 (KRas Q61H) [nM]	pIC50 (KRas G12A)	pIC50 (KRas G12S)	pIC50 (KRas G12C)	pIC50 (KRas WT)
CCc1c(F)ccc2cc(O)cc(-c3ncc4c(NCc5c[nH]c6ncccc56)nc(OC[C@@]56CCCN5C[C@H](F)C6)nc4c3F)c12 [62.]	87	591	410	7	24	154	178	≥ 10000	–	–	–	–	–	–	–	–	–	–	–	–
C#Cc1c(F)ccc2cccc(-c3ncc4c(N5CCCC6(CNC(=O)C6)C5)nc(OC[C@@]56CCCN5C[C@H](F)C6)nc4c3F)c12 (stereo partly drawn) [Example 36, 7-(7-(8-ethynyl-7-fluoronaphthalen-1-yl)-8-fluoro-2-(((2R,7aS)-2-fluorohexahydro-1H-pyrrolizin-7a-yl)methoxy)pyrido[4,3-d]pyrimidin-4-yl)-2,7-diazaspiro[4.5]decan-3-one]	2150	1540	1610	1180	1130	557	3390	≥ 10000	8.05	7.70	7.62	–	–	–	–	–	–	–	–	–
CCc1c(F)ccc2cc(O)cc(-c3ncc4c(N5CCCC6(CNC(=O)C6)C5)nc(OC[C@@]56CCCN5C[C@H](F)C6)nc4c3F)c12 (stereo partly shown) [Example 38]	3270	966	814	143	324	573	1190	7620	≥ 8.70	≥ 8.70	≥ 8.70	–	–	–	–	–	–	–	–	–
CCc1c(F)ccc2cc(O)cc(-c3ncc4c(N5C[C@H](O)C[C@@H](O)C5)nc(OC[C@@]56CCCN5C[C@H](F)C6)nc4c3F)c12 [Example 59]	3560	–	1270	107	176	–	–	≥ 10000	≥ 8.70	≥ 8.70	≥ 8.70	577	296	769	–	–	–	–	–	–
CCc1c(F)ccc2cc(O)cc(-c3ncc4c(NCC5CNC(=O)C5)nc(OC[C@@]56CCCN5C[C@H](F)C6)nc4c3F)c12 (stereo partly shown) [Example 60]	5530	3890	3600	230	389	1030	1260	≥ 10000	≥ 8.70	≥ 8.70	≥ 8.70	–	–	–	–	–	–	–	–	–
CCc1c(F)ccc2cc(O)cc(-c3ncc4c(N5CCC6(CC5)CC(=O)N6)nc(OC[C@@]56CCCN5C[C@H](F)C6)nc4c3F)c12 [Example 73]	191	3490	128	23	98	176	756	≥ 10000	8.30	≥ 8.70	≥ 8.70	–	–	–	–	–	–	–	–	–
CCc1c(F)ccc2cc(O)cc(-c3ncc4c(N5CC(n6ccnc6)C5)nc(OC[C@@]56CCCN5C[C@H](F)C6)nc4c3F)c12 [Example 134, 4-(4-(3-(1H-imidazol-1-yl)azetidin-1-yl)-8-fluoro-2-(((2R,7aS)-2-fluorohexahydro-1H-pyrrolizin-7a-yl)methoxy)pyrido[4,3-d]pyrimidin-7-yl)-5-ethyl-6-fluoronaphthalen-2-ol]	1490	≥ 10000	≥ 10000	178	48	666	≥ 10000	≥ 10000	–	–	–	–	–	–	–	–	–	–	–	–
CCc1c(F)ccc2cc(O)cc(-c3ncc4c(NCCCc5cc[nH]n5)nc(OC[C@@]56CCCN5C[C@H](F)C6)nc4c3F)c12 [Example 135, 4-(4-((3-(1H-pyrazol-3-yl)propyl)amino)-8-fluoro-2-(((2R,7aS)-2-fluorohexahydro-1H-pyrrolizin-7a-yl)methoxy)pyrido[4,3-d]pyrimidin-7-yl)-5-ethyl-6-fluoronaphthalen-2-ol]	2460	2060	3270	53	37	647	≥ 10000	≥ 10000	7.51	8.52	8.52	–	–	–	–	–	–	–	–	–
Oc1cc(-c2ncc3c(N4CCCC(c5ncn[nH]5)C4)nc(OCC45CCCN4CCC5)nc3c2F)c2c(F)c(F)ccc2c1 (stereo not shown) [Example 137, 4-(4-(3-(1H-1,2,4-triazol-5-yl)piperidin-1-yl)-8-fluoro-2-((hexahydro-1H-pyrrolizin-7a-yl)methoxy)pyrido[4,3-d]pyrimidin-7-yl)-5,6-difluoronaphthalen-2-ol]	≥ 10000	≥ 10000	≥ 10000	≥ 10000	2040	≥ 10000	≥ 10000	≥ 10000	≥ 8.70	≥ 8.70	8.52	–	–	–	–	–	–	–	–	–
Cc1n[nH]c(C2CCCN(c3nc(OCC45CCCN4CCC5)nc4c(F)c(-c5cc(O)cc6ccc(F)c(F)c56)ncc34)C2)n1 (stereo not shown) [Example 138, 5,6-difluoro-4-(8-fluoro-2-((hexahydro-1H-pyrrolizin-7a-yl)methoxy)-4-(3-(3-methyl-1H-1,2,4-triazol-5-yl)piperidin-1-yl)pyrido[4,3-d]pyrimidin-7-yl)naphthalen-2-ol]	≥ 10000	≥ 10000	≥ 10000	≥ 10000	≥ 10000	≥ 10000	≥ 10000	≥ 10000	7.92	8.30	8.30	–	–	–	–	–	–	–	–	–
CCc1c(F)ccc2cc(O)cc(-c3ncc4c(NCc5ccc6[nH]cnc6c5)nc(OC[C@@]56CCCN5C[C@H](F)C6)nc4c3F)c12 [Example 139, 4-(4-(((1H-benzo[d]imidazol-5-yl)methyl)amino)-8-fluoro-2-(((2R,7aS)-2-fluorohexahydro-1H-pyrrolizin-7a-yl)methoxy)pyrido[4,3-d]pyrimidin-7-yl)-5-ethyl-6-fluoronaphthalen-2-ol]	≥ 10000	≥ 10000	≥ 10000	307	115	7510	≥ 10000	≥ 10000	8.10	≥ 8.70	≥ 8.70	–	–	–	–	–	–	–	–	–
CCc1c(F)ccc2cc(O)cc(-c3ncc4c(NCc5ncc6cc[nH]c6n5)nc(OC[C@@]56CCCN5C[C@H](F)C6)nc4c3F)c12 [Example 142, 4-(4-(((7H-pyrrolo[2,3-d]pyrimidin-2-yl)methyl)amino)-8-fluoro-2-(((2R,7aS)-2-fluorohexahydro-1H-pyrrolizin-7a-yl)methoxy)pyrido[4,3-d]pyrimidin-7-yl)-5-ethyl-6-fluoronaphthalen-2-ol]	≥ 10000	2870	6960	45	78	212	≥ 10000	≥ 10000	7.85	≥ 8.70	≥ 8.70	–	–	–	–	–	–	–	–	–
CCc1c(F)ccc2cc(O)cc(-c3ncc4c(NCc5ccc(=O)[nH]c5)nc(OC[C@@]56CCCN5C[C@H](F)C6)nc4c3F)c12 [Example 143]	≥ 10000	≥ 10000	≥ 10000	300	527	≥ 10000	≥ 10000	≥ 10000	8.40	≥ 8.70	≥ 8.70	–	–	–	–	–	–	–	–	–
C[C@@]1(O)CCCN(c2nc(OC[C@@]34CCCN3C[C@H](F)C4)nc3c(F)c(-c4c5ccccc5cc5[nH]ncc45)ncc23)C1 [Example 154, (3R)-1-(7-(1H-benzo[f]indazol-4-yl)-8-fluoro-2-(((2R,7aS)-2-fluorohexahydro-1H-pyrrolizin-7a-yl)methoxy)pyrido[4,3-d]pyrimidin-4-yl)-3-methylpiperidin-3-ol]	8450	–	1460	–	840	–	≥ 10000	≥ 10000	7.48	7.55	7.18	–	–	–	34	53	7.38	7.37	7.37	7.27
